Reference: PubChem BioAssay (NCI)
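Where inhibition never reached the appropriate level, the endpoint shown equals the highest concentration tested. Otherwise, values were interpolated linearly from a five-concentration, 48-hour dose response in 96-well plates. TGI: total growth inhibition.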

How the values were obtained:
Assay in all cases: NCI anticancer screen, dose series, 48 h
MALME-3M melanoma = system: MALME-3M melanoma
KM20L2 colon = system: KM20L2 colon
RPMI-8226 leukemia = system: RPMI-8226 leukemia
SF-539 CNS = system: SF-539 CNS
RXF 393 renal = system: RXF 393 renal
OVCAR-8 ovarian = system: OVCAR-8 ovarian
HT29 colon = system: HT29 colon
UACC-257 melanoma = system: UACC-257 melanoma
TK-10 renal = system: TK-10 renal
SR leukemia = system: SR leukemia
KM12 colon = system: KM12 colon
NCI-H23 lung = system: NCI-H23 lung
DLD-1 colon = system: DLD-1 colon
UO-31 renal = system: UO-31 renal
U251 CNS = system: U251 CNS
ACHN renal = system: ACHN renal
DMS 114 small cell lung = system: DMS 114 small cell lung
NCI-H226 lung = system: NCI-H226 lung
LOX IMVI melanoma = system: LOX IMVI melanoma
CCRF-CEM leukemia = system: CCRF-CEM leukemia
IGROV1 ovarian = system: IGROV1 ovarian
SF-295 CNS = system: SF-295 CNS
HOP-18 NSCLC = system: HOP-18 NSCLC
HCT-15 colon = system: HCT-15 colon
A498 renal = system: A498 renal
HOP-92 NSCLC = system: HOP-92 NSCLC
K-562 leukemia = system: K-562 leukemia
DMS 273 small cell lung = system: DMS 273 small cell lung
M19-MEL melanoma = system: M19-MEL melanoma
A549 NSCLC = system: A549 NSCLC
XF 498 CNS = system: XF 498 CNS
786-0 renal = system: 786-0 renal
SF-268 CNS = system: SF-268 CNS
OVCAR-4 ovarian = system: OVCAR-4 ovarian
RXF-631 renal = system: RXF-631 renal
UACC-62 melanoma = system: UACC-62 melanoma
SN12C renal = system: SN12C renal
NCI-H460 lung = system: NCI-H460 lung
M14 melanoma = system: M14 melanoma
HOP-62 NSCLC = system: HOP-62 NSCLC
SNB-75 CNS = system: SNB-75 CNS
SNB-78 CNS = system: SNB-78 CNS
COLO 205 colon = system: COLO 205 colon
MOLT-4 leukemia = system: MOLT-4 leukemia
SK-OV-3 ovarian = system: SK-OV-3 ovarian
HL-60(TB) leukemia = system: HL-60(TB) leukemia
EKVX NSCLC = system: EKVX NSCLC
NCI-H522 lung = system: NCI-H522 lung
HCT-116 colon = system: HCT-116 colon
SK-MEL-2 melanoma = system: SK-MEL-2 melanoma
SK-MEL-5 melanoma = system: SK-MEL-5 melanoma
OVCAR-5 ovarian = system: OVCAR-5 ovarian
OVCAR-3 ovarian = system: OVCAR-3 ovarian
HCC-2998 colon = system: HCC-2998 colon
CAKI-1 renal = system: CAKI-1 renal
SNB-19 CNS = system: SNB-19 CNS
SW-620 colon = system: SW-620 colon
SK-MEL-28 melanoma = system: SK-MEL-28 melanoma
LXFL 529 NSCLC = system: LXFL 529 NSCLC

Measured: TGI

O=c1[nH]c2cc([N+](=O)[O-])ccc2nc1/C(=N/Nc1ccccc1)C(O)c1ccc(Cl)cc1Cl (stereo not drawn)
82.4 µM: SR leukemia
44.7 µM: DMS 114 small cell lung
not listed: CAKI-1 renal | SNB-19 CNS | SW-620 colon | SK-MEL-28 melanoma | LXFL 529 NSCLC
> 100 µM: all other assays above

[O-][n+]1c(-c2ccccc2)oc2ccccc21
17.5 µM: NCI-H522 lung
40.3 µM: UO-31 renal
20.2 µM: NCI-H460 lung
43.1 µM: KM20L2 colon
67.1 µM: OVCAR-5 ovarian
38.7 µM: NCI-H23 lung
35.2 µM: HOP-62 NSCLC
> 55.7 µM: CAKI-1 renal
> 65.1 µM: SNB-19 CNS
36.6 µM: SK-MEL-28 melanoma
97.1 µM: SNB-78 CNS
24.3 µM: HCT-15 colon
63 µM: EKVX NSCLC
34.8 µM: A498 renal
55.6 µM: RXF 393 renal
59.1 µM: HT29 colon
31.5 µM: SF-539 CNS
23.1 µM: UACC-62 melanoma
> 94.4 µM: LXFL 529 NSCLC
62.4 µM: 786-0 renal
3.59 µM: M19-MEL melanoma
> 59.5 µM: DLD-1 colon
79.9 µM: HL-60(TB) leukemia
28 µM: DMS 273 small cell lung
41.9 µM: HCT-116 colon
65.9 µM: OVCAR-3 ovarian
> 85.8 µM: U251 CNS
> 68 µM: OVCAR-4 ovarian
24.8 µM: M14 melanoma
22.6 µM: UACC-257 melanoma
29 µM: SN12C renal
15.7 µM: LOX IMVI melanoma
39.1 µM: SW-620 colon
37.8 µM: HCC-2998 colon
27.6 µM: SF-295 CNS
33.6 µM: COLO 205 colon
32.7 µM: SNB-75 CNS
28.1 µM: MALME-3M melanoma
> 69.2 µM: RPMI-8226 leukemia
6.81 µM: SK-MEL-5 melanoma
39.4 µM: ACHN renal
47.7 µM: TK-10 renal
20.1 µM: HOP-18 NSCLC
17.9 µM: A549 NSCLC
16.4 µM: DMS 114 small cell lung
40.4 µM: SK-MEL-2 melanoma
> 100 µM: all other assays above

Cc1ccc(N=Nc2c(C)nn(-c3ccccc3)c2C)c(Br)c1
not listed: SR leukemia | UO-31 renal | NCI-H522 lung
> 100 µM: all other assays above

Cc1cccc(C)c1NC(=O)CCC(=O)NNc1nnc(C)n1N
> 100 µM: all assays above

CCOC(=O)[C@]12C3C=CC(C3)C1C(=O)C1OC12 (stereo partly drawn)
not listed: KM20L2 colon | RXF 393 renal | SR leukemia | M14 melanoma
> 100 µM: all other assays above
